In patent publication US20090137549A1, “Novel compounds useful for the treatment of degenerative & inflamatory diseases” (priority 2006, published 2009):

Biological target: PDE1A (Homo sapiens, UniProt P54750)
Test: PDE1A dose response, Cyclic Nucleotide Phosphodiesterase Assay Kit from Biomol (colorimetric)
Format: biochemical
Details: purified PDE1A enzyme, 100 μM cAMP
Source text: For the dose response and further screening, we used the Cyclic Nucleotide
Phosphodiesterase Assay Kit from Biomol, a colorimetric, non-radioactive assay. The basis for the assay is the cleavage of cAMP by PDE1A. The 5′AMP is further cleaved into the nucleoside and phosphate by the enzyme 5′-nucleotidase (catnr KI-307). The phosphate released due to enzymatic cleavage is quantified using BIOMOL GREEN™ reagent (catnr AK-111) in a modified Malachite Green assay^1,2. A PDE1A inhibitor will result in a decrease of the signal.
For the enzymatic reaction a mix of 25 μL with purified PDE1A enzyme, 100 μM cAMP, 5′Nucleotidase and the compound is made in a clear 384-plate. The reaction buffer is Tris 20 mM pH 7.4, 4 μg/mL calmodulin, 3 mM MgCl2, 1.5 mM CaCl2, 0.2 mg/mL BSA and 0.001% Brij-35. After an incubation of 45 minutes at 37° C., the reaction is stopped by the addition of 50 μL BIOMOL GREEN™ reagent. After 30 minutes incubation at room temperature, the readout is performed on the Envision (absorption at 615 nm).
All compounds are tested in duplicate starting from […] followed by a 1/3 serial dilution, 8 points (20 μM-6.67 μM-2.22 μM-740 nM-247 nM-82 nM-27 nM-9 nM) in a final concentration of 1% DMSO. As the positive dose response control compound Vardenafil is used. For the calculation of z′ and PIN values 10 μM Vardenafil is used as positive control (100% inhibition) and 1% DMSO as negative control (0% inhibition).
The following compounds have been or can be prepared according to the synthetic methods described above. For the purpose of Table 7 below, PDE1A activity of each compound, which can be determined using the assay methods described herein, is expressed as follows: […]

Structure (SMILES): CC(C)(C)OC(=O)N1CCC(NC(=O)N2CC(c3nc4c(cnn4C4CCCCC4)c(=O)[nH]3)C2)CC1 [Example 41, tert-butyl 4-(3-(1-cyclohexyl-4-oxo-4,5-dihydro-1H-pyrazolo[3,4-d]pyrimidin-6-yl)azetidine-1-carboxamido)piperidine-1-carboxylate]
- IC50: 1 to 100 nM

Structure (SMILES): O=c1[nH]c(C2CN(c3nc4ccccc4o3)C2)nc2c1cnn2C1CCCCC1 [Example 130, 6-(1-(benzo[d]oxazol-2-yl)azetidin-3-yl)-1-cyclohexyl-1H-pyrazolo[3,4-d]pyrimidin-4(5H)-one]
- IC50: 101 to 500 nM

Structure (SMILES): O=C(N1CCCCC1)N1CC(c2nc3c(cnn3C3CCCCC3)c(=O)[nH]2)C1 [Example 83, 1-cyclohexyl-6-(1-(piperidine-1-carbonyl)azetidin-3-yl)-1H-pyrazolo[3,4-d]pyrimidin-4(5H)-one]
- IC50: 501 to 1000 nM

Structure (SMILES): N#C/N=C(/Nc1ccc(F)cc1)N1CC(c2nc3c(cnn3C3CCCCC3)c(=O)[nH]2)C1 [Example 177, N′-Cyano-3-(1-cyclohexyl-4-oxo-4,5-dihydro-1H-pyrazolo[3,4-d]pyrimidin-6-yl)-N-(4-fluorophenyl)azetidine-1-carboximidamide]
- IC50: 1 to 100 nM

Structure (SMILES): CCCn1nc(C)c2c(=O)[nH]c(C3CCCN(S(=O)(=O)c4ccc(OC)cc4)C3)nc21 (stereo not shown) [Example 111, 6-(1-(4-methoxyphenylsulfonyl)piperidin-3-yl)-3-methyl-1-propyl-1H-pyrazolo[3,4-d]pyrimidin-4(5H)-one]
- IC50: 1000 to 1500 nM

Structure (SMILES): O=C(c1cccc2c1OCO2)N1CCCC(c2nc3c(cnn3C3CCCCC3)c(=O)[nH]2)C1 (stereo not shown) [Example 49, 6-(1-(benzo[d][1,3]dioxole-4-carbonyl)piperidin-3-yl)-1-cyclohexyl-1H-pyrazolo[3,4-d]pyrimidin-4(5H)-one]
- IC50: 101 to 500 nM

Structure (SMILES): Cc1nn(C2CCCCC2)c2nc(C3CCCN(C(=O)c4ccccc4NS(C)(=O)=O)C3)[nH]c(=O)c12 (stereo not shown) [Example 181, N-{2-[3-(1-Cyclohexyl-3-methyl-4-oxo-4,5-dihydro-1H-pyrazolo[3,4-d]pyrimidin-6-yl)-piperidine-1-carbonyl]phenyl}-methanesulfonamide]
- IC50: 501 to 1000 nM

Structure (SMILES): COc1cccc(C(=O)N2CCCC(c3nc4c(c(C)nn4-c4ccccc4)c(=O)[nH]3)C2)c1 (stereo not shown) [Example 81, 6-(1-(3-methoxybenzoyl)piperidin-3-yl)-3-methyl-1-phenyl-1H-pyrazolo[3,4-d]pyrimidin-4(5H)-one]
- IC50: 501 to 1000 nM

Structure (SMILES): CC(C)N1CC(n2ncc3c(=O)[nH]c(C4CN(C(=O)Nc5ccc(F)cc5)C4)nc32)C1 [Example 108, N-(4-fluorophenyl)-3-(1-(1-isopropylazetidin-3-yl)-4-oxo-4,5-dihydro-1H-pyrazolo[3,4-d]pyrimidin-6-yl)azetidine-1-carboxamide]
- IC50: 1000 to 1500 nM

Structure (SMILES): COc1ccc(NC(=O)N2CC(c3nc4c(cnn4C4CCCCC4)c(=O)[nH]3)C2)cc1 [Example 13, 3-(1-cyclohexyl-4-oxo-4,5-dihydro-1H-pyrazolo[3,4-d]pyrimidin-6-yl)-N-(4-methoxyphenyl)azetidine-1-carboxamide]
- IC50: 1 to 100 nM

Structure (SMILES): O=C(NCc1ccc(F)cc1)N1CC(c2nc3c(cnn3C3CCCCC3)c(=O)[nH]2)C1 [Example 30, 3-(1-cyclohexyl-4-oxo-4,5-dihydro-1H-pyrazolo[3,4-d]pyrimidin-6-yl)-N-(4-fluorobenzyl)azetidine-1-carboxamide]
- IC50: 1 to 100 nM

Structure (SMILES): CC(C)(C)n1ncc2c(=O)[nH]c(C3CN(c4ccccn4)C3)nc21 [Example 163, 1-tert-Butyl-6-(1-pyridin-2-yl-azetidin-3-yl)-1,5-dihydro-pyrazolo[3,4-d]pyrimidin-4-one]
- IC50: 101 to 500 nM

Structure (SMILES): Cc1nn(C2CCCCC2)c2nc(C3CN(C(=O)c4ccccc4)C3)[nH]c(=O)c12 [Example 72, 6-(1-benzoylazetidin-3-yl)-1-cyclohexyl-3-methyl-1H-pyrazolo[3,4-d]pyrimidin-4(5H)-one]
- IC50: 101 to 500 nM

Structure (SMILES): O=c1[nH]c(C2CN(c3ncc(-c4ccccc4)s3)C2)nc2c1cnn2C1CCCCC1 [Example 160, 1-Cyclohexyl-6-(1-(5-phenylthiazol-2-yl)azetidin-3-yl)-1H-pyrazolo[3,4-d]pyrimidin-4-(5H)-one]
- IC50: 101 to 500 nM

Structure (SMILES): COc1cccc(C(=O)N2CCCC(c3nc4c(cnn4-c4ccccc4)c(=O)[nH]3)C2)c1 (stereo not shown) [Example 68, 6-(1-(3-methoxybenzoyl)piperidin-3-yl)-1-phenyl-1H-pyrazolo[3,4-d]pyrimidin-4(5H)-one]
- IC50: 101 to 500 nM

Structure (SMILES): COc1ccc(S(=O)(=O)N2CCCC(c3nc4c(c(C)nn4C4CCC4)c(=O)[nH]3)C2)cc1 (stereo not shown) [Example 70, 1-cyclobutyl-6-(1-(4-methoxyphenylsulfonyl)piperidin-3-yl)-3-methyl-1H-pyrazolo[3,4-d]pyrimidin-4(5H)-one]
- IC50: 101 to 500 nM

Structure (SMILES): N#Cc1ccc(N2CC(c3nc4c(cnn4C4CCCCC4)c(=O)[nH]3)C2)cc1 [Example 148, 4-(3-(1-cyclohexyl-4-oxo-4,5-dihydro-1H-pyrazolo[3,4-d]pyrimidin-6-yl)azetidin-1-yl)benzonitrile]
- IC50: 1 to 100 nM

Structure (SMILES): O=C(NCc1ccccc1)N1CC(c2nc3c(cnn3C3CCCCC3)c(=O)[nH]2)C1 [Example 31, N-benzyl-3-(1-cyclohexyl-4-oxo-4,5-dihydro-1H-pyrazolo[3,4-d]pyrimidin-6-yl)azetidine-1-carboxamide]
- IC50: 1 to 100 nM

Structure (SMILES): Cc1cc(N2CC(c3nc4c(cnn4C4CCCCC4)c(=O)[nH]3)C2)ccc1[N+](=O)[O-] [Example 149, 1-cyclohexyl-6-(1-(3-methyl-4-nitrophenyl)azetidin-3-yl)-1H-pyrazolo[3,4-d]pyrimidin-4(5H)-one]
- IC50: 1 to 100 nM

Structure (SMILES): CC(C)(C)n1ncc2c(=O)[nH]c(C3CN(c4nc5ccccc5[nH]4)C3)nc21 [Example 128, 6-(1-(1H-benzo[d]imidazol-2-yl)azetidin-3-yl)-1-tert-butyl-1H-pyrazolo[3,4-d]pyrimidin-4(5H)-one]
- IC50: 1 to 100 nM

Structure (SMILES): COc1ccc(S(=O)(=O)N2CCCC(c3nc4c(cnn4-c4ccccc4)c(=O)[nH]3)C2)cc1 (stereo not shown) [Example 46, 6-(1-(4-methoxyphenylsulfonyl)piperidin-3-yl)-1-phenyl-1H-pyrazolo[3,4-d]pyrimidin-4(5H)-one]
- IC50: 101 to 500 nM

Structure (SMILES): COc1ccccc1C(=O)N1CCCC(c2nc3c(c(C)nn3C3CCCCC3)c(=O)[nH]2)C1 (stereo not shown) [Example 57, 1-cyclohexyl-6-(1-(2-methoxybenzoyl)piperidin-3-yl)-3-methyl-1H-pyrazolo[3,4-d]pyrimidin-4(5H)-one]
- IC50: 101 to 500 nM

Structure (SMILES): CCCCS(=O)(=O)Nc1cccc(C(=O)N2CCCC(c3nc4c(c(C)nn4C4CCCCC4)c(=O)[nH]3)C2)c1 (stereo not shown) [Example 55, N-(3-(3-(1-cyclohexyl-3-methyl-4-oxo-4,5-dihydro-1H-pyrazolo[3,4-d]pyrimidin-6-yl)piperidine-1-carbonyl)phenyl)butane-1-sulfonamide]
- IC50: 101 to 500 nM

Structure (SMILES): Cc1nn(C2CCCCC2)c2nc(C3CN(C(=O)OCc4ccccc4)C3)[nH]c(=O)c12 [Example 115, Benzyl 3-(1-cyclohexyl-3-methyl-4-oxo-4,5-dihydro-1H-pyrazolo[3,4-d]pyrimidin-6-yl)azetidine-1-carboxylate]
- IC50: 101 to 500 nM

Structure (SMILES): Cc1nn(C2CCCCC2)c2nc(C3CCCN(C(=O)c4ccccc4)C3)[nH]c(=O)c12 (stereo not shown) [Example 89, 6-(1-benzoylpiperidin-3-yl)-1-cyclohexyl-3-methyl-1H-pyrazolo[3,4-d]pyrimidin-4(5H)-one]
- IC50: 501 to 1000 nM

Structure (SMILES): O=c1[nH]c(C2CN(c3nc(-c4ccccc4)cs3)C2)nc2c1cnn2C1CCCCC1 [Example 159, 1-Cyclohexyl-6-(1-(4-phenylthiazol-2-yl)azetidin-3-yl)-1H-pyrazolo[3,4-d]pyrimidin-4-(5H)-one]
- IC50: 1 to 100 nM

Structure (SMILES): O=c1[nH]c(C2CN(c3ncc(CN4CCOCC4)s3)C2)nc2c1cnn2C1CCCCC1 [Example 134, 1-cyclohexyl-6-(1-(5-(morpholinomethyl)thiazol-2-yl)azetidin-3-yl)-1H-pyrazolo[3,4-d]pyrimidin-4(5H)-one]
- IC50: 101 to 500 nM

Structure (SMILES): CCc1nn(C2CCCCC2)c2nc(C3CN(C(=O)Nc4ccccc4OC(F)F)C3)[nH]c(=O)c12 [Example 114, 3-(1-cyclohexyl-3-ethyl-4-oxo-4,5-dihydro-1H-pyrazolo[3,4-d]pyrimidin-6-yl)-N-(2-(difluoromethoxy)phenyl)azetidine-1-carboxamide]
- IC50: 501 to 1000 nM

Structure (SMILES): O=C(NCCCN1CCOCC1)N1CC(c2nc3c(cnn3C3CCCCC3)c(=O)[nH]2)C1 [Example 88, 3-(1-cyclohexyl-4-oxo-4,5-dihydro-1H-pyrazolo[3,4-d]pyrimidin-6-yl)-N-(3-morpholinopropyl)azetidine-1-carboxamide]
- IC50: 501 to 1000 nM

Structure (SMILES): Cc1nn(-c2ccccc2)c2nc(C3CCCN(C(=O)c4ccc(C#N)cc4)C3)[nH]c(=O)c12 (stereo not shown) [Example 109, 4-(3-(3-methyl-4-oxo-1-phenyl-4,5-dihydro-1H-pyrazolo[3,4-d]pyrimidin-6-yl)piperidine-1-carbonyl)benzonitrile]
- IC50: 1000 to 1500 nM

Structure (SMILES): COc1ccccc1C(=O)N1CC(c2nc3c(c(C)nn3C3CCCCC3)c(=O)[nH]2)C1 [Example 93, 1-cyclohexyl-6-(1-(2-methoxybenzoyl)azetidin-3-yl)-3-methyl-1H-pyrazolo[3,4-d]pyrimidin-4(5H)-one]
- IC50: 501 to 1000 nM
